Measured values from ChEMBL document CHEMBL3132747, “Design and synthesis of a novel series of N,4-diphenylpyrimidin-2-amine derivatives as potent and selective PI3K inhibitors” (Medchemcomm, 2014).

Assays:
MCF7 = experiment: Anticancer activity against human MCF7 cells by MTT assay; format: functional, cell-based
HepG2 = experiment: Anticancer activity against human HepG2 cells by MTT assay; format: functional, cell-based
A549 [1] = experiment: Anticancer activity against human A549 cells by MTT assay; format: functional, cell-based
HeLa = experiment: Anticancer activity against human HeLa cells by MTT assay; format: functional, cell-based
[2] = biological target: Phosphatidylinositol 4,5-bisphosphate 3-kinase catalytic subunit gamma isoform (Homo sapiens, UniProt P48736); experiment: Inhibition of human PI3Kgamma
[3] = biological target: Phosphatidylinositol 4,5-bisphosphate 3-kinase catalytic subunit beta isoform (Homo sapiens, UniProt P42338); experiment: Inhibition of human PI3Kbeta
[4] = biological target: Phosphatidylinositol 4,5-bisphosphate 3-kinase catalytic subunit alpha isoform (Homo sapiens, UniProt P42336); experiment: Inhibition of human PI3Kalpha
A549 [5] = experiment: Induction of apoptosis in human A549 cells assessed as late necrotic cells at 4 uM after 48 hrs using annexin V and propidium iodide staining by flow cytometry (reference value: 6.00 %); format: functional
A549 [6] = experiment: Induction of apoptosis in human A549 cells assessed as apoptotic cells at 1 uM after 48 hrs using annexin V and propidium iodide staining by flow cytometry (reference value: 5.37 %); format: functional
A549 [7] = experiment: Induction of apoptosis in human A549 cells assessed as late necrotic cells at 1 uM after 48 hrs using annexin V and propidium iodide staining by flow cytometry (reference value: 6.00 %); format: functional
[8] = biological target: Tyrosine-protein kinase JAK2 (Homo sapiens, UniProt O60674); experiment: Inhibition of JAK2 (unknown origin)
[9] = biological target: Cyclin-dependent kinase 2 (Homo sapiens, UniProt P24941); experiment: Inhibition of CDK2 (unknown origin)
A549 [10] = experiment: Induction of apoptosis in human A549 cells assessed as viable cells at 16 uM after 48 hrs using annexin V and propidium iodide staining by flow cytometry (reference value: 78.8 %); format: functional; settings: A549, 48 h, read-out: Activity
A549 [11] = experiment: Induction of apoptosis in human A549 cells assessed as viable cells at 1 uM after 48 hrs using annexin V and propidium iodide staining by flow cytometry (reference value: 78.8 %); format: functional; settings: A549, 48 h, read-out: Activity
A549 [12] = experiment: Induction of apoptosis in human A549 cells assessed as late apoptotic cells at 1 uM after 48 hrs using annexin V and propidium iodide staining by flow cytometry (reference value: 9.79 %); format: functional
[13] = biological target: Epidermal growth factor receptor (Homo sapiens, UniProt P00533); experiment: Inhibition of EGFR (unknown origin)
A549 [14] = experiment: Induction of apoptosis in human A549 cells assessed as viable cells at 4 uM after 48 hrs using annexin V and propidium iodide staining by flow cytometry (reference value: 78.8 %); format: functional; settings: A549, 48 h, read-out: Activity
A549 [15] = experiment: Induction of apoptosis in human A549 cells assessed as late apoptotic cells at 4 uM after 48 hrs using annexin V and propidium iodide staining by flow cytometry (reference value: 9.79 %); format: functional
A549 [16] = experiment: Induction of apoptosis in human A549 cells assessed as apoptotic cells at 16 uM after 48 hrs using annexin V and propidium iodide staining by flow cytometry (reference value: 5.37 %); format: functional
A549 [17] = experiment: Induction of apoptosis in human A549 cells assessed as late apoptotic cells at 16 uM after 48 hrs using annexin V and propidium iodide staining by flow cytometry (reference value: 9.79 %); format: functional
A549 [18] = experiment: Induction of apoptosis in human A549 cells assessed as late necrotic cells at 16 uM after 48 hrs using annexin V and propidium iodide staining by flow cytometry (reference value: 6.00 %); format: functional
A549 [19] = experiment: Induction of apoptosis in human A549 cells assessed as apoptotic cells at 4 uM after 48 hrs using annexin V and propidium iodide staining by flow cytometry (reference value: 5.37 %); format: functional

Sequence of Phosphatidylinositol 4,5-bisphosphate 3-kinase catalytic subunit beta isoform (P42338 whole entry, canonical isoform): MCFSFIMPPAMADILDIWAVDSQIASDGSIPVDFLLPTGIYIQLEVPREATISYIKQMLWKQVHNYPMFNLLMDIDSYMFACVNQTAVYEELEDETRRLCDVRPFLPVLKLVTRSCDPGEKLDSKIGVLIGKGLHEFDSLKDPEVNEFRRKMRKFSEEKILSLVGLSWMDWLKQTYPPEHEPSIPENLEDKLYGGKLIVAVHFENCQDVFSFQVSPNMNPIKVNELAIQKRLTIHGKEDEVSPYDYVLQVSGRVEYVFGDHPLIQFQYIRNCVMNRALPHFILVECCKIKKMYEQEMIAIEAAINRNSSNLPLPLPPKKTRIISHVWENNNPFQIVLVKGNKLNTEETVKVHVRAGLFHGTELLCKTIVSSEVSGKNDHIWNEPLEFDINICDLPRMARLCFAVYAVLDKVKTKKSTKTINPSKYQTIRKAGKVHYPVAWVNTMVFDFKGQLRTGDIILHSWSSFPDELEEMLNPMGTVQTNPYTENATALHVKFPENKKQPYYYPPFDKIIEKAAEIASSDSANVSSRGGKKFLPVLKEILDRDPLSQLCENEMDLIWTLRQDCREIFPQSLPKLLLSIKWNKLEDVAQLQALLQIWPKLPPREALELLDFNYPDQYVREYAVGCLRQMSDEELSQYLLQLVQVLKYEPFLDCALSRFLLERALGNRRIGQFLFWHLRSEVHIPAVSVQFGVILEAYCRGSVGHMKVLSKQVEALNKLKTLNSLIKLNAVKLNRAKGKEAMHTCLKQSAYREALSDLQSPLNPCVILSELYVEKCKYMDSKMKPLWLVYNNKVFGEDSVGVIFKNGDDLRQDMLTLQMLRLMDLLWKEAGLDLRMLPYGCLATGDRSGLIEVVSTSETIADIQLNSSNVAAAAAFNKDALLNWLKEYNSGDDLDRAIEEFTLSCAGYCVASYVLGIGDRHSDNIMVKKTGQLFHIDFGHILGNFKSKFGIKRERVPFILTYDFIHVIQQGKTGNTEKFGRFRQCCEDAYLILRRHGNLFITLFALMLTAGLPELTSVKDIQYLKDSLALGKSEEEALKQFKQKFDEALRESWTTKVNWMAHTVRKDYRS
Sequence of Phosphatidylinositol 4,5-bisphosphate 3-kinase catalytic subunit gamma isoform (P48736 whole entry, canonical isoform): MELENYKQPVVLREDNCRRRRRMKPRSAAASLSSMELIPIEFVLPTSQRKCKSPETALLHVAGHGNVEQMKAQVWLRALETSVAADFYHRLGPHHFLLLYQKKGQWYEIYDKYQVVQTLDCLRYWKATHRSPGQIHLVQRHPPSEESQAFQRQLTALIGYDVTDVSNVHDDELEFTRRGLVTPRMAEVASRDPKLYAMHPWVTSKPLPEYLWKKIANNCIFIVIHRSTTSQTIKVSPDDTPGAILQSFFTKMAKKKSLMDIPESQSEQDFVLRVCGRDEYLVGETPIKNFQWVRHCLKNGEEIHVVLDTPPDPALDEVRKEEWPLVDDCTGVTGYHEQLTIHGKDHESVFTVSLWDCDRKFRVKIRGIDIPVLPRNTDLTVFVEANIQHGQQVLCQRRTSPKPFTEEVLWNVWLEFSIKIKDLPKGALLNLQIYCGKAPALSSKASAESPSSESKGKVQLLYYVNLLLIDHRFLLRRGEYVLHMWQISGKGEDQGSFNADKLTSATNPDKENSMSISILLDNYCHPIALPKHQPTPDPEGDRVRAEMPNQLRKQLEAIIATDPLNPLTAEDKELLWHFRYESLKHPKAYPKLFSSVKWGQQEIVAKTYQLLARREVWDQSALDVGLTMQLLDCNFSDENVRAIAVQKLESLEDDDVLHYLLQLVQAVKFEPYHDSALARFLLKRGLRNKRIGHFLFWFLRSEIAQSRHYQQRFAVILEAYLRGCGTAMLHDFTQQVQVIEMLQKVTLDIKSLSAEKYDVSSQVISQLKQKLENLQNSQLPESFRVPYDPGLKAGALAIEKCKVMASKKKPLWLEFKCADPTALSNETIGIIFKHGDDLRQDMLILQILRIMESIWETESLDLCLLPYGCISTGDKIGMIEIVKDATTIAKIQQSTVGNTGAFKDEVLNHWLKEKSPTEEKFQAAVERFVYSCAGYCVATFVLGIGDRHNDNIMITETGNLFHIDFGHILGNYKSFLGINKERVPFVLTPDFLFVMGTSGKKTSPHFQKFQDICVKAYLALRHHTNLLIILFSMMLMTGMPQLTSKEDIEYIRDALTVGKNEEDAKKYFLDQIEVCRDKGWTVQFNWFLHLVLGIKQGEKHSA
Sequence of Phosphatidylinositol 4,5-bisphosphate 3-kinase catalytic subunit alpha isoform (P42336 whole entry, canonical isoform): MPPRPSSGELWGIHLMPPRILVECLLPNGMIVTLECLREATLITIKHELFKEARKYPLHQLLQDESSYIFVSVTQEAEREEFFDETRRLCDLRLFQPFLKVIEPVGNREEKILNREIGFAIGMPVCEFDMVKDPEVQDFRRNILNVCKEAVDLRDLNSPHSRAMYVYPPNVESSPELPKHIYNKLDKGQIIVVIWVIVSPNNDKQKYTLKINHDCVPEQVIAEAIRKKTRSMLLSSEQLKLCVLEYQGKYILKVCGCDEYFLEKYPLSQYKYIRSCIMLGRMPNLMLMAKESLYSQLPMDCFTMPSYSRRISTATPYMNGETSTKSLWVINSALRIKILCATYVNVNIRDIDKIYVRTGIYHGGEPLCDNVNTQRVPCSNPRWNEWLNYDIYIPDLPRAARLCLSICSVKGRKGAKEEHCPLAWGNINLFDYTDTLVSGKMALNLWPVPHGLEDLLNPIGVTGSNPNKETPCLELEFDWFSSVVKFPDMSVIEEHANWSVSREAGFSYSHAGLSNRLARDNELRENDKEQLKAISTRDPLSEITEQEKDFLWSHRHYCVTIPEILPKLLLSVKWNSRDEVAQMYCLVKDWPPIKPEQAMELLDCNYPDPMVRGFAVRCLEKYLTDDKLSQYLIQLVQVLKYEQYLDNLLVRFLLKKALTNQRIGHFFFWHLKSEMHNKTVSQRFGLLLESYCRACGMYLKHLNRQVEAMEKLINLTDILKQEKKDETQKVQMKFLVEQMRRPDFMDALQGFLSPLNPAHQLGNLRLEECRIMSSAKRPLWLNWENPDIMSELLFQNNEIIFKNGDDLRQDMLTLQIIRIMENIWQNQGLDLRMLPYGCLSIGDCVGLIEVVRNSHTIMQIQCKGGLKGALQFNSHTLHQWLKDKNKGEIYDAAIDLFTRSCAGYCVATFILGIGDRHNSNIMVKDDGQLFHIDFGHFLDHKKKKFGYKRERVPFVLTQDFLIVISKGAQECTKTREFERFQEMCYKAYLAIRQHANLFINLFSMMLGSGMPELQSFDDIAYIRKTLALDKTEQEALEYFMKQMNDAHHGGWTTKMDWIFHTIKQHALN
Sequence of Tyrosine-protein kinase JAK2 (O60674 whole entry): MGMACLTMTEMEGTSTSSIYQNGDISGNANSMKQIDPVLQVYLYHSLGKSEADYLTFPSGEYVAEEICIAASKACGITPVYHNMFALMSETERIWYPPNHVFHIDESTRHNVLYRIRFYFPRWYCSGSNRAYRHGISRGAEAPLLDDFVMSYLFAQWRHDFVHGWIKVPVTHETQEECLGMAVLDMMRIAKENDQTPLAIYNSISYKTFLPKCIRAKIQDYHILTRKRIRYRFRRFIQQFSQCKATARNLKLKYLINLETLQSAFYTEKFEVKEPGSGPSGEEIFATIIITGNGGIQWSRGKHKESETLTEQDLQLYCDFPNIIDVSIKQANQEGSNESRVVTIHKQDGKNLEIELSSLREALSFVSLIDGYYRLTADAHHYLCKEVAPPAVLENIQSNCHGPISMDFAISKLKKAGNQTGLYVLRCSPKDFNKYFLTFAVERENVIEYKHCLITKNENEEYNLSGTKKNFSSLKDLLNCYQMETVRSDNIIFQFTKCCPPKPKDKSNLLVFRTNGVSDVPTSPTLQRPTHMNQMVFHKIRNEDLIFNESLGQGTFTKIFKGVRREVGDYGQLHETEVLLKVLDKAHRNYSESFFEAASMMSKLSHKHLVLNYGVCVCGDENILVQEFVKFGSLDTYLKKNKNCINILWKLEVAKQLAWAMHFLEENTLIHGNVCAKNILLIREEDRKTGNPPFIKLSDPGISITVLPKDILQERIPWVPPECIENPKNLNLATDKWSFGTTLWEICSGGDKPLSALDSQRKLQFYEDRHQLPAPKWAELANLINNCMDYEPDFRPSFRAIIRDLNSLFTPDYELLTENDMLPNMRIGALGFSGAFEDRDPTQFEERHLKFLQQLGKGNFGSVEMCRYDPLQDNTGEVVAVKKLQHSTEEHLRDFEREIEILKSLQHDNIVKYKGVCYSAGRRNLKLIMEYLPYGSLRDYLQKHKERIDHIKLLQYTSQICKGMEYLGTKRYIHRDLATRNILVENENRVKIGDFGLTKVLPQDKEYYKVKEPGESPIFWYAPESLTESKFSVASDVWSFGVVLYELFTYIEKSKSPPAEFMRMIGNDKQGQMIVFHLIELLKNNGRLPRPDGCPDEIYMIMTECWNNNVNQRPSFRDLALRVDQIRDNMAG

| Structure (SMILES) | IC50 (MCF7) [µM] | IC50 (HepG2) [µM] | IC50 (A549 [1]) [µM] | IC50 (HeLa) [µM] | IC50 ([2]; read-out: IC50) [µM] | IC50 ([2]; read-out: pIC50 (converted)) [µM] | IC50 [3] [µM] | IC50 [4] [µM] | other results |
| --- | --- | --- | --- | --- | --- | --- | --- | --- | --- |
| Nc1nc(N)c2nc(-c3cccc(O)c3)cnc2n1 | 1.03 | 0.82 | 0.49 | 0.15 |  |  |  |  |  |
| Cc1cccc(Nc2nccc(-c3ccc(Cl)cc3Cl)n2)c1 | 249 | 13.2 | 18.4 | 7.66 | 0.274 | 0.274 | 0.851 | 0.813 |  |
| COc1cccc(Nc2nccc(-c3ccc(Cl)cc3Cl)n2)c1 | 192 | 96.9 | 32.2 | 76.4 | 0.278 | 0.278 | 0.893 | 0.851 |  |
| O=[N+]([O-])c1ccc(Nc2nccc(-c3ccc(Cl)cc3Cl)n2)cc1 | 192 | 99.3 | 119 | 168 | 0.386 | 0.386 | 0.938 | 0.953 |  |
| Clc1ccc(Nc2nccc(-c3ccc(Cl)cc3Cl)n2)c(Cl)c1 | 3.18 | 8.08 | 11.6 | 1.56 | 0.268 | 0.268 | 0.799 | 0.772 |  |
| COc1ccc(-c2ccnc(Nc3cccc(OC)c3)n2)cc1 | 3.45 | 13.9 | 6.53 | 0.55 | 0.195 | 0.195 | 0.729 | 0.615 |  |
| COc1ccc(-c2ccnc(Nc3ccc(Cl)cc3)n2)cc1 | 0.81 | 4.5 | 20.9 | 0.31 | 0.167 | 0.167 | 0.603 | 0.552 |  |
| COc1ccc(-c2ccnc(Nc3ccc([N+](=O)[O-])cc3)n2)cc1 | 0.77 | 1.04 | 2.73 | 0.98 | 0.143 | 0.143 | 0.537 | 0.527 |  |
| COc1ccc(-c2ccnc(Nc3ccc(Cl)cc3Cl)n2)cc1 | 4.17 | 0.19 | 7.33 | 23 | 0.235 | 0.235 | 0.839 | 0.738 |  |
| Cc1ccc(-c2ccnc(Nc3ccc(Cl)cc3Cl)n2)cc1 | > 1000 | 344 | 164 | 91.5 | 0.371 | 0.371 | > 1 | > 1 |  |
| COc1cccc(Nc2nccc(-c3ccc(F)cc3)n2)c1 | 412 | 128 | 35.9 | 145 | 0.334 | 0.334 | > 1 | 0.88 |  |
| O=[N+]([O-])c1ccc(Nc2nccc(-c3ccc(F)cc3)n2)cc1 | 0.4 | 7.95 | 84 | 3.51 | 0.247 | 0.247 | 0.863 | 0.679 |  |
| COc1cc(Nc2nccc(-c3ccc(Cl)cc3)n2)cc(OC)c1OC | 3.15 | 0.09 | 0.36 | 0.29 | ≤ 0.065 |  | 0.373 | 0.341 | Activity (A549 [5]): 4.62%; Activity (A549 [6]): 8.47%; Activity (A549 [7]): 3.66%; IC50 [8]: 21.5 µM; IC50 [9]: 18.8 µM; viability at 16 µM (A549 [10]): 44.9%; viability at 1 µM (A549 [11]): 62.9%; Activity (A549 [12]): 25%; IC50 [13]: 2.15 µM; viability at 4 µM (A549 [14]): 56.1%; Activity (A549 [15]): 32.8%; Activity (A549 [16]): 13.5%; Activity (A549 [17]): 39.4%; Activity (A549 [18]): 2.19%; Activity (A549 [19]): 6.53% |
| Cc1cccc(Nc2nccc(-c3ccc(Br)cc3)n2)c1 | 210 | 74.6 | 63.2 | 71 | 0.342 | 0.342 | > 1 | 0.894 |  |
| COc1cccc(Nc2nccc(-c3ccc(Br)cc3)n2)c1 | 278 | 148 | 82.7 | 153 | 0.357 | 0.357 | 0.977 | > 1 |  |
| CC(C)c1ccccc1Nc1nccc(-c2ccc(Br)cc2)n1 | 111 | 7.03 | 3.71 | 11.5 | 0.313 | 0.313 | 0.874 | 0.792 |  |
| Clc1ccc(Nc2nccc(-c3ccc(Br)cc3)n2)cc1 | 4.18 | 47.5 | 6.11 | 36.7 | 0.302 | 0.302 | 0.946 | 0.914 |  |
| O=[N+]([O-])c1ccc(Nc2nccc(-c3ccc(Br)cc3)n2)cc1 | 681 | 43 | 76 | 25.7 | 0.265 | 0.265 | 0.961 | 0.946 |  |
| Clc1ccc(Nc2nccc(-c3ccc(Br)cc3)n2)c(Cl)c1 | 2.49 | 0.72 | 3.78 | 1.08 | 0.231 | 0.231 | 0.673 | 0.591 |  |
| COc1cccc(Nc2nccc(-c3ccc(Cl)c(Cl)c3)n2)c1 | 21 | 3.37 | 6 | 4.97 | 0.217 | 0.217 | 0.741 | 0.625 |  |
| O=[N+]([O-])c1ccc(Nc2nccc(-c3ccc(Cl)c(Cl)c3)n2)cc1 | 3.51 | 0.5 | 0.72 | 1.84 | 0.154 | 0.154 | 0.573 | 0.503 |  |
| Clc1ccc(Nc2nccc(-c3ccc(Cl)c(Cl)c3)n2)c(Cl)c1 | 45.6 | 28.4 | 26 | 23 | 0.25 | 0.25 | 0.926 | 0.836 |  |
